Patent US20090170838A1, “Bicycloheteroaryl compounds as P2X7 modulators and uses thereof” (Renovis, Inc., priority 2005, published 2009)

Each compound was assayed against T1, P2X7 receptor (Homo sapiens, UniProt Q99572) (assay: IL-1β release assay (BzATP-stimulated, LPS/IFN-γ differentiated THP-1 cells, ELISA)). Conditions: at 0.1 μM (asterisk symbols).
T1 construct: host or cells: THP-1 cells differentiated with LPS and IFN-γ
T1 sequence (Q99572 1-595): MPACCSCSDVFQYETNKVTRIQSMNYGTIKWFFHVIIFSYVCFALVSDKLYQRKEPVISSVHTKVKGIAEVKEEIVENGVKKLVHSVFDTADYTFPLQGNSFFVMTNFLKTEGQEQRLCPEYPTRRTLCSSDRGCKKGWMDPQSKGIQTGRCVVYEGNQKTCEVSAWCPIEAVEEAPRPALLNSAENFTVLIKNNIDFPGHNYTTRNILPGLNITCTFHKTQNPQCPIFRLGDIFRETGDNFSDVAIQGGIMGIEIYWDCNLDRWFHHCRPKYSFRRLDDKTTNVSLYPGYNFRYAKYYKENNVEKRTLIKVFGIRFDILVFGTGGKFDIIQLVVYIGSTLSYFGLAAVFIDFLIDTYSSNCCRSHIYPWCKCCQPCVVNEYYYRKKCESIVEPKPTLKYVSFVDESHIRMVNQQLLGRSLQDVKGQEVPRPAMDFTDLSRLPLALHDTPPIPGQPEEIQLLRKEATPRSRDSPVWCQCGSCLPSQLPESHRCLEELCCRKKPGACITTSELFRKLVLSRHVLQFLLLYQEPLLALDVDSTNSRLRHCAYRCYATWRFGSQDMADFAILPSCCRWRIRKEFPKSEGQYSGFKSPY
Assay type: cell-based
Procedure: THP-1 cells (ATCC Cat # 285-IF-100) are plated in 96 well plates at a concentration of 200,000 cells per well and allowed to differentiate in RPMI-1640 media (ATCC Cat # 30-2001) containing 10% FBS, 100 IU/mL penicillin, 100 ug/mL streptomycin, 100 ng/mL LPS and 100 ng/mL IFN-γ for 16 hours. Following differentiation, the cells are treated for an additional 2 hours in RPMI-1640 media containing 100 IU/mL penicillin, 100 ug/mL streptomycin and fresh LPS at 100 ng/mL. The cells are then pretreated for 30 minutes with the compound of interest at the appropriate concentration in RPMI media containing 100 IU/mL penicillin, 100 ug/mL streptomycin. Following the pretreatment 2′,3′-O-(4-benzoylbenzoyl)-adenosine 5′-triphosphate (Sigma Aldrich Cat# B6396) is added to a final concentration of 250 uM and the cells incubated for an additional 45 minutes. 30 uL of cell supernatant is then collected and […] levels determined via ELISA (R&D systems Cat. # HSLB50) according to manufacturer's recommendations using the Tecan Safire plate reader. Background adjusted IL-1β levels of drug treated and non-treated cells are used to calculate the percent inhibition.
Compound `O=C(CC12CC3CC(CC(C3)C1)C2)Nc1cccc2c1CCN(Cc1ccccc1F)C2=O` [Compound 790] has an inhibition at 0.1 µM of no less than 75%. Work on `CC(C)(C)OC(=O)N1CCC[C@@H]1Cn1ccc2c(NC(=O)CC34CC5CC(CC(C5)C3)C4)cccc2c1=O` [Compound 774] yielded an inhibition at 0.1 µM of no less than 75%. Work on `CCN1CCCC1Cn1ccc2c(NC(=O)CC34CC5CC(C)(CC(C)(C5)C3)C4)cccc2c1=O` (stereo not drawn) [Compound 772] yielded an inhibition at 0.1 µM of 50 to 75%. For `O=C(CC12CC3CC(CC(C3)C1)C2)Nc1cccc2c1CCN(Cc1ccccn1)C2=O` [Compound 795], the inhibition at 0.1 µM was no less than 75%. Compound `CN1CCC(CN2CCc3c(NC(=O)CC45CC6CC(CC(C6)C4)C5)cccc3C2=O)CC1` [Compound 794] has an inhibition at 0.1 µM of no less than 75%. In the case of `CC12CC3CC(C)(C1)CC(CC(=O)Nc1cccc4c1CCN(Cc1ccccn1)C4=O)(C3)C2` [Compound 807], the inhibition at 0.1 µM is reported as 0 to 25%. `Cc1cc(CN2CCc3c(NC(=O)CC45CC6CC(CC(C6)C4)C5)cccc3C2=O)nn1C` [Compound 797] gave an inhibition at 0.1 µM of no less than 75%. For `O=C(CC12CC3CC(CC(C3)C1)C2)Nc1cccc2c1CCN(CCCn1ccnc1)C2=O` [Compound 836], the inhibition at 0.1 µM was no less than 75%. Work on `O=C(CC12CC3CC(CC(C3)C1)C2)Nc1cccc2c(=O)n(C[C@H]3CCCN3)ccc12` [Compound 811] yielded an inhibition at 0.1 µM of no less than 75%. Work on `O=C(CC12CC3CC(CC(C3)C1)C2)Nc1cccc2c(=O)n(C[C@@H]3CCCN3)ccc12` [Compound 810] yielded an inhibition at 0.1 µM of no less than 75%. `CC12CC3CC(C)(C1)CC(CC(=O)Nc1cccc4c1CCN(CCN1CCOCC1)C4=O)(C3)C2` [Compound 815] was tested, and the inhibition at 0.1 µM was 50 to 75%. `O=C(CC12CC3CC(CC(C3)C1)C2)Nc1cccc2c1CCN(CC1CCOCC1)C2=O` [Compound 833] gave an inhibition at 0.1 µM of no less than 75%. Work on `NC(=O)CCn1ccc2c(NC(=O)CC34CC5CC(CC(C5)C3)C4)cccc2c1=O` [Compound 829] yielded an inhibition at 0.1 µM of no less than 75%. `O=C(CC12CC3CC(CC(C3)C1)C2)Nc1cccc2c(=O)n(CCc3ccncc3)ccc12` [Compound 784] showed an inhibition at 0.1 µM of no less than 75%. `CC12CC3CC(C)(C1)CC(CC(=O)Nc1cccc4c(=O)n(Cc5ccc6c(c5)OCO6)ccc14)(C3)C2` [Compound 821] gave an inhibition at 0.1 µM of no less than 75%. Compound `CN(C)CCn1ccc2c(NC(=O)CC34CC5CC(C)(CC(C)(C5)C3)C4)cccc2c1=O` [Compound 763] has an inhibition at 0.1 µM of 25 to 50%. `CN1CCCC1CCN1CCc2c(NC(=O)CC34CC5CC(CC(C5)C3)C4)cccc2C1=O` (stereo not drawn) [Compound 879] showed an inhibition at 0.1 µM of no less than 75%. Work on `O=C(CC12CC3CC(CC(C3)C1)C2)Nc1cccc2c(=O)n(C(CO)Cc3c[nH]cn3)ccc12` (stereo not drawn) [Compound 883] yielded an inhibition at 0.1 µM of no less than 75%. `CC12CC3CC(C)(C1)CC(CC(=O)Nc1cccc4c(=O)n(Cc5ccc(C(F)(F)F)cc5)ccc14)(C3)C2` [Compound 753] showed an inhibition at 0.1 µM of no less than 75%. In the case of `CN1CCCC1CCn1ccc2c(NC(=O)CC34CC5CC(CC(C5)C3)C4)cccc2c1=O` (stereo not drawn) [Compound 788], the inhibition at 0.1 µM is reported as no less than 75%. With `C[C@@H](c1ccccc1)n1ccc2c(NC(=O)CC34CC5CC(C)(CC(C)(C5)C3)C4)cccc2c1=O` [Compound 818] the inhibition at 0.1 µM was 50 to 75%. For `Cn1ccc2c(NC(=O)CC34CC5CC(CC(C5)C3)C4)cccc2c1=O` [Compound 805, adamantyl-N-(2-methyl-1-oxo-1,2-dihydroisoquinolin-5-yl)acetamide], the inhibition at 0.1 µM was no less than 75%. `O=C(CC12CC3CC(CC(C3)C1)C2)Nc1cccc2c(=O)n(C[C@H]3CCCO3)ccc12` [Compound 771] gave an inhibition at 0.1 µM of no less than 75%. Compound `CC12CC3CC(C)(C1)CC(CC(=O)Nc1cccc4c1CCN(CC1CCOCC1)C4=O)(C3)C2` [Compound 813] has an inhibition at 0.1 µM of no less than 75%. `CC12CC3CC(C)(C1)CC(CC(=O)Nc1cccc4c(=O)n(Cc5ccc6c(c5)OCCO6)ccc14)(C3)C2` [Compound 803] gave an inhibition at 0.1 µM of no less than 75%. `CN1CCN(CCCn2ccc3c(NC(=O)CC45CC6CC(CC(C6)C4)C5)cccc3c2=O)CC1` [Compound 787] gave an inhibition at 0.1 µM of no less than 75%. For `CC12CC3CC(C)(C1)CC(CC(=O)Nc1cccc4c1CCN(CCCN1CCOCC1)C4=O)(C3)C2` [Compound 822], the inhibition at 0.1 µM was no less than 75%. In the case of `O=C(CC12CC3CC(CC(C3)C1)C2)Nc1cccc2c1CCN(CCc1c[nH]cn1)C2=O` [Compound 802], the inhibition at 0.1 µM is reported as no less than 75%. `Cc1cnc(CN2CCc3c(NC(=O)CC45CC6CC(C)(CC(C)(C6)C4)C5)cccc3C2=O)cn1` [Compound 778] gave an inhibition at 0.1 µM of no less than 75%. Work on `O=C(CC12CC3CC(CC(C3)C1)C2)Nc1cccc2c(=O)n(CCO)ccc12` [Compound 845] yielded an inhibition at 0.1 µM of no less than 75%. For `CC(C)(C)OC(=O)N1CCCC1Cn1ccc2c(NC(=O)CC34CC5CC(CC(C5)C3)C4)cccc2c1=O` (stereo not drawn) [Compound 773], the inhibition at 0.1 µM was no less than 75%. Work on `O=C(CC12CC3CC(CC(C3)C1)C2)Nc1cccc2c1CCN(CC1COc3ccccc3O1)C2=O` (stereo not drawn) [Compound 872] yielded an inhibition at 0.1 µM of no less than 75%. Work on `CC(c1cccnc1)n1ccc2c(NC(=O)CC34CC5CC(CC(C5)C3)C4)cccc2c1=O` (stereo not drawn) [Compound 837] yielded an inhibition at 0.1 µM of no less than 75%. Compound `Cc1cccnc1CN1CCc2c(NC(=O)CC34CC5CC(CC(C5)C3)C4)cccc2C1=O` [Compound 825] has an inhibition at 0.1 µM of no less than 75%. `O=C(CC12CC3CC(CC(C3)C1)C2)Nc1cccc2c1CCN(CC1CCNCC1)C2=O` [Compound 875] gave an inhibition at 0.1 µM of no less than 75%. Compound `O=C(CC12CC3CC(CC(C3)C1)C2)Nc1cccc2c1CCN(C(CO)CO)C2=O` [Compound 827] has an inhibition at 0.1 µM of no less than 75%. With `CC(c1ccccc1)N1CCc2c(NC(=O)CC34CC5CC(C)(CC(C)(C5)C3)C4)cccc2C1=O` (stereo not drawn) [Compound 838] the inhibition at 0.1 µM was no less than 75%. `CC(c1ccccn1)n1ccc2c(NC(=O)CC34CC5CC(CC(C5)C3)C4)cccc2c1=O` (stereo not drawn) [Compound 858] showed an inhibition at 0.1 µM of no less than 75%. For `NC(=O)[C@H](Cc1ccccc1)n1ccc2c(NC(=O)CC34CC5CC(CC(C5)C3)C4)cccc2c1=O` [Compound 776], the inhibition at 0.1 µM was no less than 75%.

Same assay, conditions: at 0.3 μM (plus symbols)
With `CN1CCC(CN2CCc3c(NC(=O)CC45CC6CC(C)(CC(C)(C6)C4)C5)cccc3C2=O)CC1` [Compound 894] the inhibition at 0.3 µM was no less than 75%. `CC(c1ccccc1)n1ccc2c(NC(=O)CC34CC5CC(C)(CC(C)(C5)C3)C4)cccc2c1=O` (stereo not drawn) [Compound 742] was tested, and the inhibition at 0.3 µM was no less than 75%. For `O=C(CC12CC3CC(CC(C3)C1)C2)Nc1cccc2c1CCN(Cc1ccc(F)cc1)C2=O` [Compound 704], the inhibition at 0.3 µM was no less than 75%. With `O=C(CC12CC3CC(CC(C3)C1)C2)Nc1cccc2c(=O)n(C[C@@H]3CCCO3)ccc12` [Compound 739] the inhibition at 0.3 µM was no less than 75%. For `CC(C)Cn1ccc2c(N(C)C(=O)CC34CC5CC(CC(C5)C3)C4)cccc2c1=O` [Compound 893], the inhibition at 0.3 µM was 25 to 50%. Work on `Cc1ccccc1Cn1ccc2c(NC(=O)CC34CC5CC(CC(C5)C3)C4)cccc2c1=O` [Compound 723] yielded an inhibition at 0.3 µM of no less than 75%. In the case of `Cc1cc(Cn2ccc3c(NC(=O)CC45CC6CC(C)(CC(C)(C6)C4)C5)cccc3c2=O)nn1C` [Compound 745], the inhibition at 0.3 µM is reported as no less than 75%. `O=C(CC12CC3CC(CC(C3)C1)C2)Nc1cccc2c(=O)n(Cc3ccncc3)ccc12` [Compound 716] showed an inhibition at 0.3 µM of no less than 75%. `CC12CC3CC(C)(C1)CC(CC(=O)Nc1cccc4c(=O)n(CCc5c[nH]cn5)ccc14)(C3)C2` [Compound 741] gave an inhibition at 0.3 µM of no less than 75%. `O=C(CC12CC3CC(CC(C3)C1)C2)Nc1cccc2c1CCN(CC1CCCO1)C2=O` (stereo not drawn) [Compound 726] was tested, and the inhibition at 0.3 µM was no less than 75%. In the case of `O=C(CC12CC3CC(CC(C3)C1)C2)Nc1cccc2c(=O)n(Cc3ccccn3)ccc12` [Compound 714], the inhibition at 0.3 µM is reported as no less than 75%. Compound `CN1CCC(Cn2ccc3c(NC(=O)CC45CC6CC(C)(CC(C)(C6)C4)C5)cccc3c2=O)CC1` [Compound 746] has an inhibition at 0.3 µM of no less than 75%. Work on `O=C(CC12CC3CC(CC(C3)C1)C2)Nc1cccc2c1CCN(Cc1ccco1)C2=O` [Compound 730] yielded an inhibition at 0.3 µM of no less than 75%. Compound `CC12CC3CC(C)(C1)CC(CC(=O)Nc1cccc4c(=O)n(Cc5ccccn5)ccc14)(C3)C2` [Compound 744] has an inhibition at 0.3 µM of no less than 75%. Compound `Cc1nn(C)c(C)c1CN1CCc2c(NC(=O)CC34CC5CC(CC(C5)C3)C4)cccc2C1=O` [Compound 729] has an inhibition at 0.3 µM of no less than 75%. With `CC12CC3CC(C)(C1)CC(CC(=O)Nc1cccc4c(=O)n(Cc5ccccc5F)ccc14)(C3)C2` [Compound 743] the inhibition at 0.3 µM was no less than 75%. `O=C(CC12CC3CC(CC(C3)C1)C2)Nc1cccc2c(=O)n(Cc3ccc(F)cc3)ccc12` [Compound 703, 2-Adamantan-1-yl-N-[2-(4-fluoro-benzyl)-1-oxo-1,2-dihydro-isoquinolin-5-yl]-acetamide] was tested, and the inhibition at 0.3 µM was no less than 75%. With `CCN1CCCC1Cn1ccc2c(NC(=O)CC34CC5CC(CC(C5)C3)C4)cccc2c1=O` (stereo not drawn) [Compound 750] the inhibition at 0.3 µM was no less than 75%.
